# Assay results reported in patent publication US20260176266A1, “PIPERIDINOPYRIMIDINE DERIVATIVE, PREPARATION METHOD THEREFOR AND USE THEREOF IN MEDICINE” (TUOJIE BIOTECH (SHANGHAI) CO., LTD., priority 2022, published 2026).
# Assays:
# CDK2/CyclinE1 = CDK2/CyclinE1 (Homo sapiens, UniProt P24941); assay: ADP-Glo kinase assay, CDK2; type: biochemical; settings: 1 nM CDK2/CyclinE1, 15 μM ATP (Km), Histone H1, 60 min; read-out: inhibitory activity (IC50, nM) CDK2
# Procedure: (§1) The ADP-Glo kinase assay was used for testing the activity of CDKs. The compounds were diluted in 384-well plates using Echo. The starting concentration was 10 μM and was 3-fold diluted to obtain 10 concentration points, each tested in duplicate, and the final concentration of DMSO in the assay system was 1%. CDK solutions (the final concentrations were 16.5 nM CDK1/CyclinB, 1 nM CDK2/CyclinE1, 16.3 nM CDK4/CyclinD1, 11.5 nM CDK5/p25, 15.7 nM CDK6/CyclinD3, 80 nM CDK7/Cyclin H/MAT1, 15.3 nM CDK9/Cyclin T1, and 150 nM CDK12/CyclinK) prepared in assay buffer were added at 2.5 μL, and the enzymes and compounds were pre-incubated at room temperature for 10 min. ATP (the concentration was Km) & substrate solutions (20 μM ATP & 0.1 mg/mL Histone H1 Protein for CDK1/CyclinB, 15 μM ATP & 0.1 mg/mL Histone H1 Protein for CDK2/CyclinE1, 200 μM ATP & 0.2 mg/mL DYRKtide peptide for CDK4/CyclinD1, 10 μM ATP & 0.1 mg/mL Histone H1 Protein for CDK5/p25, 200 μM ATP & 0.1 mg/mL Histone H1 Protein for CDK6/CyclinD3, 70 μM ATP & 0.2 mg/mL MBP for CDK7/Cyclin H/MAT1, 60 μM ATP & 0.2 mg/mL PDKtide for CDK9/Cyclin T1, and 20 μM ATP & 80 μM pS7-CTD peptide for CDK12/CyclinK) prepared in assay buffer were added at 2.5 μL. After thorough mixing, the plates were incubated at room temperature, with CDK1/4/9/12/13 incubated for 120 min and CDK2/5/6/7 incubated for 60 min. ADP-Glo reagents were added at 4 μL, and the plates were incubated at room temperature for 40 min. Kinase detection reagents were added at 8 μL, and the plates were incubated at room temperature for 40 min. Readings were taken using an Envision multimode microplate reader. Data were processed using GraphPad Prism 8, and IC50 was calculated.
# (§2) [formula] • X: the logarithm of the compound concentration; Y: % inhibition.
# CDK7/Cyclin H/MAT1 = CDK7/Cyclin H/MAT1 (Homo sapiens, UniProt P50613); assay: ADP-Glo kinase assay, CDK7; type: biochemical; settings: 80 nM CDK7/Cyclin H/MAT1, 70 μM ATP (Km), MBP, 60 min; read-out: inhibitory activity (IC50, nM) CDK7
# Procedure: as §1, §2
# [1] = Human liver microsome metabolism study; type: in vitro ADME; settings: human liver microsomes
# Procedure: 222.5 μL of human liver microsomes (protein concentration: 1 mg/mL) and 25 μL of NADPH ([…]) were added to an incubation plate and pre-heated for 10 min. 2.5 μL of control compound and test compound (100 μM) were added.
# […] The reaction was stopped by adding 5 volumes of cold acetonitrile containing IS (100 nM alprazolam, 200 nM caffeine, and 100 nM tolbutamide). The reaction mixture was centrifuged, and 100 μL of the supernatant was collected and mixed with 100 μL of ultrapure H2O. Then the mixture was analyzed by LC-MS/MS.
# The slope value k was determined by linear regression of the natural logarithm of a curve of the parent drug remaining percentage versus incubation time.
# The in-vitro half-life (in-vitro T1/2) was determined by the slope value:
# Using the following equation (the average of repeated measurements), the in-vitro T½ (min) was converted to the in-vitro intrinsic clearance rate (in-vitro CLint, in μL/min/mg protein): […]
# CDK7/Cyclin H/MAT1, sequence (P50613 whole entry, species assumed): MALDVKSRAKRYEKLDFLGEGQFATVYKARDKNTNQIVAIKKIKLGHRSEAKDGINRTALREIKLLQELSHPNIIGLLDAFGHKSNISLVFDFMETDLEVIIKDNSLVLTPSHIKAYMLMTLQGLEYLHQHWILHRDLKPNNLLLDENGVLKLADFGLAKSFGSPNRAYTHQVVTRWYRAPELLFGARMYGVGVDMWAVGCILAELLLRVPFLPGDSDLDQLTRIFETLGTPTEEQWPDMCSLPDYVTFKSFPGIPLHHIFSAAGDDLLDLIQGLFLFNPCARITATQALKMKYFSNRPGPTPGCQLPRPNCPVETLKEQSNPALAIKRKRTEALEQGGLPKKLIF
# CDK7/Cyclin H/MAT1, sequence (P51946 whole entry partner, species assumed): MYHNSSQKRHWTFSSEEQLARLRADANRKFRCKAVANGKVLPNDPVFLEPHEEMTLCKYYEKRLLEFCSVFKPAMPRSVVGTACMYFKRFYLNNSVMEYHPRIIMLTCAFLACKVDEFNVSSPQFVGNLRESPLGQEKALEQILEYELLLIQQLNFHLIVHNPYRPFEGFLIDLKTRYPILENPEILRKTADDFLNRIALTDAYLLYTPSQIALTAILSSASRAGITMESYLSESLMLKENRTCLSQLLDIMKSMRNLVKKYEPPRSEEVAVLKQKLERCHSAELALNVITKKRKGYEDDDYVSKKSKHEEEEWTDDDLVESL
# CDK7/Cyclin H/MAT1, sequence (P51948 whole entry partner, species assumed): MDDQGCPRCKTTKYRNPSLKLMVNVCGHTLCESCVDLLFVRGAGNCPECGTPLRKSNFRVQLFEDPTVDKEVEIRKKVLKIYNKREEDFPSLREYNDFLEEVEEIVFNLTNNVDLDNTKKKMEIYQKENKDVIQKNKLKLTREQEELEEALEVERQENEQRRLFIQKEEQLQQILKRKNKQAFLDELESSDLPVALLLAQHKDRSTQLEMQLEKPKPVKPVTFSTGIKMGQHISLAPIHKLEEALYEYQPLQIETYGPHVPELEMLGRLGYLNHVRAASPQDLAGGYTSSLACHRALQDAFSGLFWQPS
compound,measurement,setting,value
"C[C@@H]1Cc2cnc(NCc3ccn(C)n3)nc2CN1C(=O)[C@H]1CCN(C)C[C@@H]1c1ccccc1 [Janssen-01, reference compound]",IC50,CDK2/CyclinE1,933 nM
same,IC50,CDK7/Cyclin H/MAT1,25.2 nM
same,half-life at 1 μM,[1]; in-vitro half-life,73 min
same,microsomal CLint at 1 μM,[1]; in-vitro intrinsic clearance,19 µL/min/mg
same,Remaining amount % at 0.5 min,[1]; incubation 0.5 min,100.00%
same,Remaining amount % at 5 min,[1]; incubation 5 min,91.32%
same,Remaining amount % at 15 min,[1]; incubation 15 min,78.60%
same,Remaining amount % at 30 min,[1]; incubation 30 min,68.95%
same,Remaining amount % at 60 min,[1]; incubation 60 min,55.59%
